Laboratory results taken from US5661182A, “Method for lowering oxygen affinity of hemoglobin in redcell suspensions, in whole blood and in vivo” (Virginia Commonwealth University, priority 1995, dated 1997).
“Also recorded” adds a separate entry of the source.

Tests used:
[1] = system: hemoglobin in rat blood; assay: In vivo effect in conscious rats: oxygen dissociation curve of blood after 2-h infusion; conditions: for sign of distress: rats, during infusion
Description: In Vivo Studies. The in vivo effect of RSR-4 and RSR-13 was assessed in conscious rats that received (through a chronic femoral vein catheter) an initial 85.7±3.7 mg/kg dose of RSR-4 or 84.0±4.0 mg/kg dose of RSR-13, followed by 85.7±3.7mg/(kg h) RSR-4 or 84.0±4.0 mg/(kg h) RSR13, respectively, for 2 h. The oxygen dissociation curve was measured before infusion with a Hemox analyzer and, after the 2-h infusion, was manually measured with a tonometer and visible spectroscopy to avoid a dilution step (used with the Hemox analyzer) that would disrupt the equilibrium between the drug and erythrocytes. Tonometry was performed at a constant/pCO2 of 40 mmHg at 37° C. The pH of the blood was 7.443±0.012 (n=5) for the RSR-13 experiment and 7.412±0.098 (n=7) for the RSR-4 experiment. Control rats received an infusion of buffer solution with NaHCO3. A slight molar excess of NaHCO3 was used to better solubilize RSR-4.

[2] = target: bovine hemoglobin (Bos taurus, UniProt P01966+P02070); assay: Oxygen equilibrium of isolated bovine Hb solutions (p50); format: biochemical; conditions: for p50 shift at increasing chloride concentration / Hb bovine(p50): bovine Hb solution; for p50 shift at increasing chloride concentration: 0.5 mM, chloride 0-400 mM; for Hb bovine(p50): effector 0.5 mM, pH 7.2, 100 mM NaCl, 25 °C
Sequence of bovine hemoglobin (P01966 whole entry): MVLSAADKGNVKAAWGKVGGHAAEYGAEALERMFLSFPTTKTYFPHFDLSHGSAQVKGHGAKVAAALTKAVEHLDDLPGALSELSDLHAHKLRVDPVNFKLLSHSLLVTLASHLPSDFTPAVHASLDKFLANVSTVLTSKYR
Sequence of bovine hemoglobin (P02070 whole entry): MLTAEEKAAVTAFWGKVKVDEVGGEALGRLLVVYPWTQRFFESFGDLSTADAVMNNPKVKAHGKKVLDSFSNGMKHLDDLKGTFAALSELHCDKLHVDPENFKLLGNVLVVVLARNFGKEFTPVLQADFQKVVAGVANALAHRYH
Text: (§1) L3,5 and L3,4,5 were provided by Dr. Lalezari (Montefiore Hospital, New York); RSR-4 [2-[4-[[(3,5-dichloroanilino)carbonyl]methyl]phenoxy]-2-methylpropionic acid]and RSR13 [2-4-[[(3,5- dimethylanilino)carbonyl]methyl]phenoxy]-2-methylpropionic acid] have been synthesized following the procedure described in Randad et al. (J. Med. Chem. 34,752 (1991)). Human serum albumin (HSA), bovine serum albumin (BSA) and 4,4'diisothiocyanatostilbene-2,2'-disulfonate (DIDS) were purchased from Sigma (St. Louis, Mo.). Due to their low solubility in aqueous buffer, 10 mM stock solutions of the compounds were prepared in a slight exccess of sodium bicarbonate and back-titrated to pH 7.4. For example, RSR-4 or RSR-13 was dissolved at 60° C. in a 140 mM NaCl and 50 mM bis-Tris buffer at room temperature upon progressive addition of NaHCO3 to obtain 10 mM stock solutions. The pH was carefully adjusted to 7.4 after complete solubilization and before use of the solutions. Fresh solutions were prepared each week. Stock solutions of DIDS (1 mM) were prepared, in the dark, on the day of the experiments in a pH 7.4 buffer. Human serum albumin (defatted HSA) and bovine serum albumin (BSA) were prepared freshly as 1 mM stock solutions, pH 7.4. Equilibrium Measurements. The allosteric modulation of the effectors on freshly prepared solutions of hemoglobin or red cell suspensions was measured by the change in p50, the partial pressure of oxygen for half-saturation. Oxygen equilibrium curves (OEC) were carried out with the Hemox analyzer (TCS, Southampton, Pa.) under the following conditions: pH 7.4, 140 mM NaCl and 50 mM bis-Tris buffer at 37° C. In all experiments, the concentration of hemoglobin in the red cell suspensions was 20-25 μM hemoglobin tetramer (Hb4) as measured by Drabkin's method (cyanomethemoglobin) at the end of each recording. The final concentration of the allosteric effector in the cuvette was 0.5 mM, resulting in an effector/Hb4 ratio of 20 in the absence of albumin. OEC were also made in the same buffer containing 12.5, 25, 50, and 100 μM HSA (for human red cell suspensions) or BSA (for bovine cell suspensions). The serum albumin experiments were carried out with traces of an antifoaming agent. This agent has no deleterious effect on the red cell suspensions. The molar ratio of albumin to tetrameric hemoglobin was varied from 0.5 (at 12.5 μM HSA) to 4 (at 100 μM HSA); in whole blood this ratio is approximately 0.3 (0.7 mM albumin plus plasma proteins/2.25 mM Hb4). Therefore, the concentration of albumin used in the present studies was always larger relative to tetrameric hemoglobin than that found in whole blood.
Bovine Red Cell Studies. Table 2 presents data for oxygen binding measurements for fresh bovine red blood cells and isolated Hb solutions on addition of the effectors L3,5, RSR-4, and RSR-13. The experimental conditions used were the same as described in conjunction with Table 1 for human red blood cells. The oxygen equilibrium curves for Hb solutions were made at pH 7.2, 100 mM NaCl and 50 mM bis-Tris buffer at 25° C. Catalase (20 μg/mL) and 50 μM EDTA were added to oppose oxidation of the hemes. The concentration of the effectors was 0.5 mM in all conditions. In Table 2, BSA is bovine serum albumin and P50 (mmHg) is the pO2 for 50% saturation.

[3] = target: HbA (normal adult hemoglobin) (Homo sapiens, UniProt P68871+P69905); assay: Oxygen equilibrium of isolated human Hb solutions (HbA p50); format: biochemical; conditions: human Hb solution; for p50 shift at increasing chloride concentration: 0.5 mM, chloride 0-400 mM; for HbA(p50): effector 0.5 mM, pH 7.2, 100 mM NaCl, 25 °C
Sequence of HbA (normal adult hemoglobin) (P69905 whole entry): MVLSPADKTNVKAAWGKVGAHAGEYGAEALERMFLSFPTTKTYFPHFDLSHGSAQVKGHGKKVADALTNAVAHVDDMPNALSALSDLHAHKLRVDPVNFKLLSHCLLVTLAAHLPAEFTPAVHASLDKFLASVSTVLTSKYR
Sequence of HbA (normal adult hemoglobin) (P68871 whole entry): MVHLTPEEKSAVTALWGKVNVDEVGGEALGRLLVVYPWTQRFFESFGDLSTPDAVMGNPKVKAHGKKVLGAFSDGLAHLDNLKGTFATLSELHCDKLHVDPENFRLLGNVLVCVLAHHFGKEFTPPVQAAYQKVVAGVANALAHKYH
Text: as §1
Bovine Red Cell Studies. […]

[4] = system: HbA/Yakima red blood cells; assay: Calculated oxygen delivery index of HbA/Yakima red blood cells (ΔY); format: cell-based, human; conditions: for ΔY (oxygen delivery index): HbA/Yakima RBC, 0.5 mM
Description: Human blood was collected on heparin from healthy nonsmoking donors. Bovine blood was provided by Pr Delpech, INA (Paris-Grignon). Red blood cells were washed three times in isotonic buffer, kept at 4° C., and used within 24 h after sampling. Hemoglobin Yakima, a high-oxygen-affinity variant [α2 β2 99 (G1) Asp>>His], was obtained from a known heterozygous carrier. Fresh Yakima red cells were processed in the same way as described above.
In Vivo Estimates for Percent of Oxygen Delivery. Table 4 presents the calculated oxygen delivery index for red blood cell suspensions in the presence or absence of 0.5 mM L3,5 or RSR-4. The experimental conditions for the experiments of Table 4 were the same as those used for Table 1. The oxygen delivery index was calculated from the experimental oxygen binding curves as the difference in hemoglobin oxygen saturation (percent) corresponding to the pO2 in the arterial blood (90 mmHg) and that in the mixed venous blood (40 mMHg). HbA/Yakima red blood cells were obtained from a heterozygous carrier of the high-affinity Hb variant.

Row | Structure (SMILES) | Hill coefficient ([1]; rats (n=5), 84 mg/kg then 84 mg/(kg h) for 2 h, initial 2.62±0.10) | p50 ([1]; rats (n=5), 84 mg/kg then 84 mg/(kg h) for 2 h, initial 36.0±2.7) [mmHg] | sign of distress [1] | p50 ([1]; rats (n=7), 85.7±3.7 mg/kg iv then 85.7±3.7 mg/(kg h) for 2 h, control value 36.4±1.6) [mmHg] | Hill coefficient ([1]; rats (n=7), 85.7±3.7 mg/kg iv then 85.7±3.7 mg/(kg h) for 2 h, initial 2.66±0.13) | potency in Hb solution ([2]; Hb solution studies, Table 2) | p50 shift at increasing chloride concentration [2] | Hb bovine(p50) [2] [mmHg] | p50 shift at increasing chloride concentration [3] | HbA(p50) [3] [mmHg] | ΔY (oxygen delivery index) ([4]; 50 μM HSA) [%] | ΔY (oxygen delivery index) ([4]; no HSA) [%] | oxygen delivery restoration ([4]; red cells containing 47% Hb Yakima)
1 | Cc1cc(C)cc(NC(=O)Cc2ccc(OC(C)(C)C(=O)O)cc2)c1 [RSR-13] | 1.73±0.08 | 61.4±5.8 | did not show any sign of distress |  |  |  |  |  |  |  |  |  | 
2 | CC(C)(Oc1ccc(CC(=O)Nc2cc(Cl)cc(Cl)c2)cc1)C(=O)O [RSR-4, 2-[4-[[(3,5-dichloroanilino)carbonyl]methyl]phenoxy]-2-methylpropionic acid] |  |  | did not show any sign of distress | 60.7±8.1 | 1.74±0.08 | significantly larger than that of L3,5 | identical at all chloride concentrations | 59 | identical at all chloride concentrations | 35.5 | 19 | 22 | able to restore an almost normal oxygen delivery; also recorded: almost normal oxygen delivery index
3 | CC(C)(Oc1ccc(NC(=O)Nc2cc(Cl)cc(Cl)c2)cc1)C(=O)O [L3,5, reference compound] |  |  |  |  |  |  | identical at all chloride concentrations | 37 | identical at all chloride concentrations | 47 |  |  | 
